How the values were obtained:
KRas G12C = target: T1, KRas G12C (Homo sapiens, UniProt P01116, G12C); assay: KRas binding assay, TR-FRET displacement of Cy5 labelled tracer; conditions: 60-minute incubation at room temperature, 1% DMSO, pH 7.5
T1 construct: Biotinylated KRas (corresponding to amino acids 1-169, produced at Accelegan Inc.); biotin (biotinylated); purchased Accelegan Inc
Method in brief: (§1)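 IC50 came from fitting POC values with a four-parameter equation. Signal was read after one hour at room temperature. Protein was biotin-tagged KRas 1-169 captured by terbium streptavidin, with compound in 1% DMSO (final).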

KRas G12S = target: T2, KRas G12S (Homo sapiens, UniProt P01116, G12S); assay: as above; conditions: 60-minute incubation at room temperature, 1% DMSO, pH 7.5
T2 construct: Biotinylated KRas (corresponding to amino acids 1-169, produced at Accelegan Inc.); biotin (biotinylated); purchased Accelegan Inc
T2 sequence (P01116 1-169 isoform P01116-2 G12S): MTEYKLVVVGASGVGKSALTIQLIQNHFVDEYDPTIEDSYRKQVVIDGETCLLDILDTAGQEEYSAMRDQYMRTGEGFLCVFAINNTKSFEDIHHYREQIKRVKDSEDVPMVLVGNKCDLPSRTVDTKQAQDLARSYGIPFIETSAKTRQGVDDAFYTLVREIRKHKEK
Method in brief: as §1

KRas WT = target: T3, KRas WT (Homo sapiens, UniProt P01116); assay: as above; conditions: 60-minute incubation at room temperature, 1% DMSO, pH 7.5
T3 construct: Biotinylated KRas (corresponding to amino acids 1-169, produced at Accelegan Inc.); biotin (biotinylated); purchased Accelegan Inc
T3 sequence (P01116 1-169 isoform P01116-2): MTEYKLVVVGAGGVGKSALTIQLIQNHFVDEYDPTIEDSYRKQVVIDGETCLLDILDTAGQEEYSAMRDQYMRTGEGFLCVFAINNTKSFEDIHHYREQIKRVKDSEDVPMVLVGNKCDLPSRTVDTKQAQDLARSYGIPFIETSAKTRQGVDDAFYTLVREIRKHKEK
Method in brief: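 Displacement measured on KRas residues 1-169 (biotinylated, terbium-streptavidin labelled); 1 h, RT; 1% DMSO final; HEPES pH 7.5 / MgCl2 / Tween-20 / DTT. IC50: 4-parameter fit.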

[1] = target: T4, KRas-mediated phosphorylation of ERK in MKN1 cells (Homo sapiens, UniProt P01116); assay: Inhibition of KRas-mediated phosphorylation of ERK (HTRF), MKN1 cells; assay type: cell-based; conditions: MKN1 cells (KRas WT); HTRF pERK; 3 h incubation
T4 construct: pERK HTRF read-out
T4 sequence (P01116 1-188 isoform P01116-2): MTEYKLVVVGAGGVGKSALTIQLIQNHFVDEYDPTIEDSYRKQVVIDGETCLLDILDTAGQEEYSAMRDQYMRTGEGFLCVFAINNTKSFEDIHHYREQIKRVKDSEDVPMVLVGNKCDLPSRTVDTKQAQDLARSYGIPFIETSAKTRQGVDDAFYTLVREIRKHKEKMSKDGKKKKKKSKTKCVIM
Method: Inhibition of KRas Phosphorylation of ERK (HTRF) by Exemplary Compounds of Formula (Ia) or (Ib)
Cisbio HTRF Advanced pERK Assay Catalog #64AERPEH • Cells: MKN1, PSN1 • Procedure: • 1. Day 1: Seed 6,000 cells/well −25 μl/well in 384-well white solid bottom plate; RPM1_10% FBS. Incubate overnight at 37 °C/5% CO2. • 2.

[2] = target: T5, KRas-mediated phosphorylation of ERK in A549 cells (Homo sapiens, UniProt P01116, G12S); assay: Inhibition of KRas-mediated phosphorylation of ERK (HTRF), A549 cells; assay type: cell-based; conditions: HTRF pERK, 3 h incubation
T5 construct: pERK HTRF read-out
T5 sequence (P01116 1-188 isoform P01116-2 G12S): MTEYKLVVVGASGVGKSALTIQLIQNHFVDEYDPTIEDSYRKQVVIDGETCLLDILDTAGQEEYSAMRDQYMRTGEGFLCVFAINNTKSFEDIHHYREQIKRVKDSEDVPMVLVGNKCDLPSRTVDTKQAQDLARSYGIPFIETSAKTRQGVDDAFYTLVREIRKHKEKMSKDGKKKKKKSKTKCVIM

T1 sequence (P01116 1-169 isoform P01116-2 G12C): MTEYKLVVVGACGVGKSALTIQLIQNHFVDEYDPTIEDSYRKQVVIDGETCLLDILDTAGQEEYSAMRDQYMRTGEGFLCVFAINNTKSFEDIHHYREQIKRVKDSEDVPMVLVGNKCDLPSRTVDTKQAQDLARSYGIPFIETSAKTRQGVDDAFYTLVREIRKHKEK

IC50 (KRas G12C)	IC50 (KRas G12S)	IC50 (KRas WT)	IC50 [1]	IC50 [2]	SMILES
5 nM	6 nM	27 nM	1500 nM	115 nM	Cc1ccn(C(=O)C23CC(CNc4nc(OC[C@@]56CCCN5C[C@H](F)C6)nc5c(F)c(-c6ccc(F)c7sc(N)c(C#N)c67)c(Cl)cc45)(C2)C3)n1 [Example 184, 2-amino-4-(6-chloro-8-fluoro-2-(((2R,7aS)-2-fluorotetrahydro-1H-pyrrolizin-7a(5H)-yl)methoxy)-4-(((3-(3-methyl-1H-pyrazole-1-carbonyl)bicyclo[1.1.1]pentan-1-yl)methyl)amino)quinazolin-7-yl)-7-fluorobenzo[b]thiophene-3-carbonitrile]
257 nM	1600 nM	1080 nM	> 10000 nM	4220 nM	CCc1c(F)ccc2cc(O)cc(-c3ncc4c(N5CCC(COC)(C(=O)n6ccc(C)n6)C5)nc(OC[C@@]56CCCN5C[C@H](F)C6)nc4c3F)c12 (stereo partly drawn) [Example 95, (1-(7-(8-ethyl-7-fluoro-3-hydroxynaphthalen-1-yl)-8-fluoro-2-(((2R,7aS)-2-fluorotetrahydro-1H-pyrrolizin-7a(5H)-yl)methoxy)pyrido[4,3-d]pyrimidin-4-yl)-3-(methoxymethyl)pyrrolidin-3-yl)(3-methyl-1H-pyrazol-1-yl)methanone]
141 nM	62 nM	317 nM	853 nM	210 nM	CCc1c(F)ccc2cc(O)cc(-c3ncc4c(N5CCC6CC6(C(=O)n6ccc(C)n6)CC5)nc(OC[C@@]56CCCN5C[C@H](F)C6)nc4c3F)c12 (stereo partly drawn) [Example 91, (4-(7-(8-ethyl-7-fluoro-3-hydroxynaphthalen-1-yl)-8-fluoro-2-(((2R,7aS)-2-fluorotetrahydro-1H-pyrrolizin-7a(5H)-yl)methoxy)pyrido[4,3-d]pyrimidin-4-yl)-4-azabicyclo[5.1.0]octan-1-yl)(3-methyl-1H-pyrazol-1-yl)methanone]
260 nM	286 nM	233 nM	9190 nM	> 10000 nM	CCc1c(F)ccc2cc(O)cc(-c3ncc4c(N5CC6CC5CC6C(=O)n5ccc(C)n5)nc(OC[C@@]56CCCN5C[C@H](F)C6)nc4c3F)c12 (stereo partly drawn) [Example 90, (2-(7-(8-ethyl-7-fluoro-3-hydroxynaphthalen-1-yl)-8-fluoro-2-(((2R,7aS)-2-fluorotetrahydro-1H-pyrrolizin-7a(5H)-yl)methoxy)pyrido[4,3-d]pyrimidin-4-yl)-2-azabicyclo[2.2.1]heptan-5-yl)(3-methyl-1H-pyrazol-1-yl)methanone]
9 nM	5 nM	19 nM	342 nM	38 nM	CCc1c(F)ccc2cc(O)cc(-c3ncc4c(NCCC(=O)n5ccc(C)n5)nc(OC[C@@]56CCCN5C[C@H](F)C6)nc4c3F)c12 [Example 122, 3-((7-(8-ethyl-7-fluoro-3-hydroxynaphthalen-1-yl)-8-fluoro-2-(((2R,7aS)-2-fluorotetrahydro-1H-pyrrolizin-7a(5H)-yl)methoxy)pyrido[4,3-d]pyrimidin-4-yl)amino)-1-(3-methyl-1H-pyrazol-1-yl) propan-1-one]
40 nM	33 nM	11 nM	127 nM	1360 nM	N#Cc1c(N)sc2c(F)ccc(-c3c(Cl)cc4c(N5CCN(S(=O)(=O)n6cnnc6)CC5)nc(OC[C@@]56CCCN5C[C@H](F)C6)nc4c3F)c12 [Example 187, 4-(4-(4-((4H-1,2,4-triazol-4-yl)sulfonyl)piperazin-1-yl)-6-chloro-8-fluoro-2-(((2R,7aS)-2-fluorotetrahydro-1H-pyrrolizin-7a(5H)-yl)methoxy)quinazolin-7-yl)-2-amino-7-fluorobenzo[b]thiophene-3-carbonitrile]
19 nM	10 nM	147 nM	108 nM	140 nM	CCc1c(F)ccc2cc(O)cc(N3CCc4c(nc(OC[C@@]56CCCN5C[C@H](F)C6)nc4N4CCCCC(C(=O)n5ccc(C)n5)CC4)C3)c12 (stereo partly drawn) [Example 148, (1-(7-(8-ethyl-7-fluoro-3-hydroxynaphthalen-1-yl)-2-(((2R,7aS)-2-fluorotetrahydro-1H-pyrrolizin-7a(5H)-yl)methoxy)-5,6,7,8-tetrahydropyrido[3,4-d]pyrimidin-4-yl)azocan-4-yl)(3-methyl-1H-pyrazol-1-yl)methanone]
37 nM	513 nM	1060 nM	> 10000 nM	2070 nM	C=CC1(C(=O)n2ccc(C)n2)CCN(c2nc(OC[C@@]34CCCN3C[C@H](F)C4)nc3c(F)c(-c4cc(O)cc5ccc(F)c(CC)c45)ncc23)C1 (stereo partly drawn) [Example 107, (1-(7-(8-ethyl-7-fluoro-3-hydroxynaphthalen-1-yl)-8-fluoro-2-(((2R,7aS)-2-fluorotetrahydro-1H-pyrrolizin-7a(5H)-yl)methoxy)pyrido[4,3-d]pyrimidin-4-yl)-3-vinylpyrrolidin-3-yl)(3-methyl-1H-pyrazol-1-yl)methanone]
5 nM	11 nM	113 nM	2140 nM	230 nM	CCc1c(F)ccc2cc(O)cc(N3CCc4c(nc(OC[C@@]56CCCN5C[C@H](F)C6)nc4NCCCC(=O)n4ccc(C)n4)C3)c12 [Example 193, 4-((7-(8-ethyl-7-fluoro-3-hydroxynaphthalen-1-yl)-2-(((2R,7aS)-2-fluorotetrahydro-1H-pyrrolizin-7a(5H)-yl)methoxy)-5,6,7,8-tetrahydropyrido[3,4-d]pyrimidin-4-yl)amino)-1-(3-methyl-1H-pyrazol-1-yl) butan-1-one]
4840 nM	4720 nM	7690 nM	> 10000 nM	> 10000 nM	CCc1c(F)ccc2cc(O)cc(-c3ncc4c(N5C[C@H]6C[C@@H](C5)[C@H](C(=O)n5ccc(C)n5)C6)nc(OC[C@@]56CCCN5C[C@H](F)C6)nc4c3F)c12 [Example 100, ((1S,5R,6R)-3-(7-(8-ethyl-7-fluoro-3-hydroxynaphthalen-1-yl)-8-fluoro-2-(((2R,7aS)-2-fluorotetrahydro-1H-pyrrolizin-7a(5H)-yl)methoxy)pyrido[4,3-d]pyrimidin-4-yl)-3-azabicyclo[3.2.1]octan-6-yl)(3-methyl-1H-pyrazol-1-yl)methanone]
1790 nM	461 nM	258 nM	3690 nM	3380 nM	CCc1c(F)ccc2cc(O)cc(-c3ncc4c(N5C[C@H]6C[C@H](C(=O)n7ccc(C)n7)C[C@H]6C5)nc(OC[C@@]56CCCN5C[C@H](F)C6)nc4c3F)c12 [Example 160, ((3aR,5R,6aS)-2-(7-(8-ethyl-7-fluoro-3-hydroxynaphthalen-1-yl)-8-fluoro-2-(((2R,7aS)-2-fluorotetrahydro-1H-pyrrolizin-7a(5H)-yl)methoxy)pyrido[4,3-d]pyrimidin-4-yl)octahydrocyclopenta[c]pyrrol-5-yl)(3-methyl-1H-pyrazol-1-yl)methanone]
6 nM	8 nM	11 nM	83 nM	278 nM	CON(C)C(=O)CCCN(C)c1nc(OC[C@@]23CCCN2C[C@H](F)C3)nc2c(F)c(-c3ccc(F)c4sc(N)c(C#N)c34)c(Cl)cc12 [Example 233, 4-((7-(2-amino-3-cyano-7-fluorobenzo[b]thiophen-4-yl)-6-chloro-8-fluoro-2-(((2R,7aS)-2-fluorotetrahydro-1H-pyrrolizin-7a(5H)-yl)methoxy)quinazolin-4-yl)(methyl)amino)-N-methoxy-N-methylbutanamide]

From patent US20260356856A1, “KRAS G12S AND G12C INHIBITORS” (MIRATI THERAPEUTICS, INC., priority 2023, published 2026)
